In PubChem BioAssay (NCI):
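The compound was tested at five concentrations on cells cultured in 96-well plates, with a 48-hour exposure period. GI50 marks 50% less growth. TGI denotes the concentration required for complete inhibition of growth.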 Where a SMILES comes first, the peptide text is derived from it. Bridges are numbered along the chain shown (N, C = ends).

How the values were obtained:
Assay in all cases: DTP human tumour cell line panel, 48 h
[1] = tested on: EKVX NSCLC
[2] = tested on: ACHN renal
[3] = tested on: RXF 393 renal
[4] = tested on: MOLT-4 leukemia
[5] = tested on: CAKI-1 renal
[6] = tested on: SF-539 CNS
[7] = tested on: A549 NSCLC
[8] = tested on: OVCAR-8 ovarian
[9] = tested on: CCRF-CEM leukemia
[10] = tested on: HCC-2998 colon

Compound	GI50 [1]	TGI [1]	GI50 [2]	TGI [2]	GI50 [3]	TGI [3]	GI50 [4]	TGI [4]	GI50 [5]	TGI [5]	GI50 [6]	TGI [6]	GI50 [7]	TGI [7]	GI50 [8]	TGI [8]	TGI [9]	TGI [10]	GI50 [9]	GI50 [10]
CCOC1Oc2ccccc2C(=O)/C1=C\Nc1ccc(C(=O)O)c(O)c1 (stereo not drawn)	36.7 µM	96.1 µM	18.3 µM	44.3 µM	16.9 µM	41.9 µM	> 100 µM	> 100 µM	20.9 µM	44 µM	25.5 µM	59.5 µM	> 100 µM	> 100 µM	19.3 µM	54 µM				
Cc1ccc(-c2nc3ccccc3c(=O)n2NC2OC(CO)C(O)C(O)C2O)cc1 (stereo not drawn)		> 100 µM		> 100 µM				> 100 µM		> 100 µM		> 100 µM		> 100 µM		> 100 µM	> 100 µM	> 100 µM		
CCCc1nn(C)c(CCC(=O)N(Cc2ccccc2)Cc2ccccc2)c1CC		> 100 µM		> 100 µM		> 100 µM						> 100 µM		> 100 µM		> 100 µM	> 100 µM	> 100 µM		
O=C(CCN1CCCC1)Nc1ccc2c(Nc3ccc(Br)cc3)c3ccccc3nc2c1	1.59 µM	3.05 µM	1.23 µM	2.48 µM	1.23 µM	2.57 µM			1.53 µM	2.87 µM	1.55 µM	2.95 µM					2.83 µM	2.73 µM	0.494 µM	1.26 µM
CCCCCCCCCCCCSC1=CC(=O)C=CC1=O			9.13 µM	> 42.4 µM	2.86 µM	19.3 µM	0.218 µM	8.97 µM	3.26 µM	24.2 µM	1.23 µM	3.5 µM	9.46 µM	> 50 µM	1.79 µM	32.1 µM	4.17 µM	> 50 µM	0.143 µM	15.2 µM
C=C(C)C1CC=C(C)C(O)([C@@]2(O)C[C@H](C(=C)C)CC=C2C)C1 (stereo partly drawn)				47.7 µM		29.1 µM		43.9 µM		51.8 µM		42.1 µM		> 100 µM		35.5 µM	46.3 µM	35.7 µM		
COC(=O)/C(=N\Nc1nc(=S)[nH]n1N)C(C#N)c1ccc(Cl)cc1 (stereo not drawn)		> 100 µM		> 100 µM		> 100 µM				> 100 µM		> 100 µM		> 100 µM		> 100 µM		> 100 µM		
CCCn1cc(/C=N\N=C2\C(=O)Nc3ccc(C)cc32)c2ccccc21	2.36 µM	> 100 µM	3.56 µM	> 100 µM	2.17 µM	7.94 µM	0.682 µM	4.54 µM			2.69 µM	17.1 µM	7.18 µM	39.6 µM	5.41 µM	> 100 µM	> 100 µM	5.14 µM	1.94 µM	2.09 µM
C#Cc1cccc(Nc2ncnc3ccc(-c4cnc(N)nc4)cc23)c1	0.242 µM	2.93 µM	0.542 µM	10.3 µM	0.693 µM	3.44 µM			1.09 µM	4.93 µM	2.81 µM	11.9 µM	2.02 µM	14.4 µM	3.69 µM	33.1 µM	> 100 µM	23.4 µM	2.6 µM	5.14 µM
Nc1nc(N)c(CCCCc2ccccc2)c(/C=C/c2ccc([N+](=O)[O-])cc2)n1		> 100 µM		18.2 µM				4.16 µM		31.6 µM		5.62 µM		19.3 µM		12.7 µM	6.01 µM	9.04 µM		
CC(C)c1ccc(C(O)(C(=O)O)c2ccc(C(C)C)cc2)cc1		> 100 µM		> 100 µM		> 100 µM		> 100 µM		> 100 µM		> 100 µM		> 100 µM		> 100 µM	> 100 µM			
COc1cc2c(cc1OC)-c1c(c3ccc([N+](=O)[O-])cc3c(=O)n1CCCN=[N+]=[N-])C2=O	> 100 µM	> 100 µM	19.4 µM	> 100 µM	> 100 µM	> 100 µM	23.3 µM	> 100 µM	26.3 µM	70.7 µM	36.4 µM	> 100 µM	56.6 µM	> 100 µM	40.9 µM	> 100 µM		> 100 µM		83.9 µM
CC1(C)C=C(N2CCN(C3=CC(C)(C)NC(C)(C)C3)CC2)CC(C)(C)N1		> 100 µM		> 100 µM				> 100 µM		> 100 µM		> 100 µM		> 100 µM		> 100 µM	> 100 µM	> 100 µM		
Cc1nccc2c3ccc(OCc4cn(-c5ccc(Br)cc5)nn4)cc3n(CCCc3ccccc3)c12	> 100 µM	> 100 µM	1.23 µM	3.52 µM			5.55 µM	> 100 µM			1.72 µM	3.4 µM			2.12 µM	5.09 µM	> 100 µM	> 100 µM	2.97 µM	> 100 µM
CN1CCN(C(=O)[C@@]2(C)CC[C@]3(C)CC[C@]4(C)C(=CC[C@@H]5[C@@]6(C)CC[C@H](OC(=O)c7cccnc7)C(C)(C)[C@@H]6CC[C@]54C)[C@@H]3C2)CC1	1.74 µM	3.86 µM	1.88 µM	3.39 µM	1.66 µM	3.33 µM	1.92 µM	4.78 µM			1.6 µM	3.06 µM	1.71 µM	3.28 µM	2.06 µM	4.3 µM	6.45 µM	3.33 µM	2.35 µM	1.81 µM
COc1cc(C(=O)c2cnc(-c3ccc4cc[nH]c4c3)[nH]2)cc(OC)c1OC	0.0721 µM	19.7 µM	0.0973 µM	6.11 µM			0.0597 µM	15.6 µM	0.0503 µM	4.2 µM	0.0214 µM	0.0623 µM	0.0523 µM	11.7 µM	0.0484 µM	11.5 µM	> 44.6 µM	4.02 µM	0.0374 µM	0.117 µM
CCOC(=O)Nc1cc2c(c(N)n1)N=C(c1ccccc1)CN2	< 0.0001 µM	46.6 µM	< 0.0001 µM	21.6 µM		29.2 µM				27.7 µM			< 0.0001 µM	18.1 µM		> 100 µM		0.0445 µM	< 0.0001 µM	

Compound	GI50 [1]	TGI [1]	GI50 [2]	TGI [2]	GI50 [3]	TGI [3]	GI50 [4]	TGI [4]	GI50 [5]	TGI [5]	GI50 [6]	TGI [6]	GI50 [7]	TGI [7]	GI50 [8]	TGI [8]	TGI [9]	TGI [10]	GI50 [9]	GI50 [10]
CCN(CC)CCNc1ccc(N=Nc2cnc3ccccc3c2)c2ccccc12			1.61 µM	3.15 µM	1.88 µM	4.05 µM	1.56 µM	3.03 µM	1.39 µM	3.21 µM	1.67 µM	3.07 µM	1.92 µM	3.5 µM	2.09 µM	4.19 µM	1.09 µM	3.16 µM	0.223 µM	1.75 µM
NS(=O)(=O)c1ccc(-n2nc(-c3ccccc3)cc2-c2cc(O)ccc2O)cc1	> 100 µM	> 100 µM	89.8 µM	> 100 µM	> 100 µM	> 100 µM	8.71 µM	> 100 µM	> 100 µM	> 100 µM			> 100 µM	> 100 µM	> 100 µM	> 100 µM	> 100 µM		> 100 µM	
O=C(CO)CC(=O)C(=O)Nc1cccc(C(F)(F)F)c1				> 100 µM				> 100 µM		> 100 µM		> 100 µM		> 100 µM		> 100 µM		> 100 µM		
CCC1=CCC(P(=O)(c2ccccc2)c2ccccc2)CC1C (stereo not drawn)		> 100 µM				> 100 µM		46.2 µM		> 100 µM		> 100 µM		> 100 µM		> 100 µM	> 100 µM			
O=C(Nc1cccc(-n2ccc3c(NC(=O)c4ccccc4)nccc32)c1)c1ccc(Cl)c(Cl)c1	0.704 µM	3.34 µM	0.177 µM	1.71 µM	0.106 µM	0.639 µM	0.634 µM		0.0531 µM	1.9 µM	0.197 µM	0.952 µM	0.136 µM	1.71 µM	0.274 µM	1.86 µM		1.27 µM		0.286 µM
O=C(O)C1C2C=CC(O2)C1C(=O)NCc1ccncc1 (stereo not drawn)		> 100 µM		> 100 µM		> 100 µM				> 100 µM		> 100 µM		> 100 µM		> 100 µM	> 100 µM			
CCc1cc2c(Nc3ccccc3)c3c(nc2s1)CCCC3		> 100 µM		> 100 µM		> 100 µM		> 100 µM				> 100 µM		> 100 µM		> 100 µM	> 100 µM	> 100 µM		
COc1ccc(C(=O)Nc2ccn(CCOC(=O)c3ccc(OC)cc3)c(=O)n2)cc1		> 100 µM		> 100 µM		54.3 µM				> 100 µM		> 100 µM		> 100 µM		> 100 µM	> 100 µM			
CCC(C)C1NC(=O)C(CC(C)C)NC(=O)C(C(C)C)NC(=O)C2CSSCC(NC1=O)C(=O)N2 (stereo not drawn) (cyclo(CCVLI); disulfide 1-2; configuration not given here)		0.452 µM		1.82 µM						5.41 µM		0.316 µM		0.399 µM		0.491 µM		0.216 µM		
O=C(O)CC(S)C(=O)O.[Li+].[Sb] (stereo not drawn)	> 100 µM	> 100 µM	> 100 µM	> 100 µM	> 100 µM	> 100 µM	64.8 µM	> 100 µM	> 100 µM	> 100 µM			> 100 µM	> 100 µM	> 100 µM	> 100 µM	> 100 µM		57 µM	
CN(CCCCCCCCNc1ccnc2ccccc12)Cc1ccc(-c2ccc(-c3ccc(C#N)cc3)s2)cc1	0.827 µM	2.28 µM	1.28 µM	2.55 µM	1.13 µM	2.54 µM	0.368 µM	2.51 µM	1.3 µM	2.65 µM	0.797 µM	2.23 µM	1.01 µM	2.94 µM	1.02 µM	4.5 µM		1.04 µM		0.275 µM
Cc1cc(C(=O)CC(Cl)=C(Cl)Cl)c(Cl)cc1Cl	19 µM	47.7 µM	18.1 µM	39.4 µM	17.8 µM	43.1 µM			18 µM	41.4 µM	13.1 µM	29.9 µM	23.7 µM	65.9 µM	21.7 µM	46.3 µM	27.3 µM		3.54 µM	
CCOP(=O)(OCC)C(NC(c1ccccc1)c1ccccc1)c1ccsc1 (stereo not drawn)	21.7 µM	41.6 µM					25.4 µM	> 100 µM	16 µM	33.2 µM	24 µM	43.1 µM	24.7 µM	76.9 µM	23.5 µM	57 µM				
CC(O)(c1ccc(OCCC[N+](C)(C)C)cc1)C(C)(O)c1ccc(OCCC[N+](C)(C)C)cc1 (stereo not drawn)		> 100 µM		> 100 µM		> 100 µM				> 100 µM		> 100 µM		> 100 µM		> 100 µM	> 100 µM	> 100 µM		
CC[C@@]1(O)C(=O)OCc2c1cc1n(c2=O)Cc2cc3cccc(N)c3nc2-1	33 µM	> 100 µM	2.81 µM	10.3 µM	7.1 µM	94.7 µM	2.35 µM	> 100 µM			3.7 µM	17 µM	7.32 µM	> 100 µM	12.1 µM	> 100 µM	> 100 µM	48.1 µM	1.07 µM	16.6 µM
COC1/C=C/OC2(C)Oc3c(C)c(O)c4c(O)c(c(/C=N/N(c5ccccc5)c5ccccc5)c(O)c4c3C2=O)NC(=O)C(C)=C/C=C/C(C)C(O)C(C)C(O)C(C)C(OC(C)=O)C1C (stereo not drawn)	2.78 µM	11.3 µM	1.75 µM	7.13 µM	0.963 µM	1.93 µM			2.42 µM	11.2 µM	1.44 µM	4.7 µM	2.11 µM	7.8 µM	1.8 µM	7.97 µM	6.62 µM	6.16 µM	1.58 µM	1.71 µM
COC(=O)/C=C(C)/C=C/c1c(C)c(C(C)=O)c(C)n1C		> 100 µM		> 100 µM				> 100 µM		> 100 µM		> 100 µM		> 100 µM		> 100 µM	> 100 µM	> 100 µM		
